Target: T1, hTRPA1 (Homo sapiens, UniProt O75762)
T1 construct: host or cells: CHO-K1 Tet-On, clone 20, expression induced with tetracycline/doxycycline
Assay: Dose response calcium flux (FLIPR) assay, ChanTest hTRPA1-CHO stably transfected cell line, cinnamaldehyde agonist
Format: cell-based
Conditions: CHO-K1 Tet-On hTRPA1 Clone 20 cells, 30 min compound preincubation, cinnamaldehyde final 100 uM
Description: Dose Response Assay: ChanTest hTRPA1-CHO Stably Transfected Cell Line
To induce expression, tetracycline was added to blasticidin/zeocin-free media at a final concentration of 1 ug/ml. Experiments were run at 24 h post induction.
Measured cell density and diluted to 2.4×10^5 cells/ml in media containing 1 ug/ml Doxycycline Plate 25 ul/well into 384 well black/clear tissue culture-treated plates.
Replacement Buffer: Hank's Balanced Salt Solution, 20 mM HEPES along with 0.005% BSA and 2× Probenecid
Dye Loading Buffer: Cal-3 NW Calcium dye was prepared by dissolving the contents of one vial with 500 ml Hank's Balanced Salt Solution containing 20 mM HEPES. • Control compounds for CHOK1/TRPA1 cells:
AP-18, stock 10 mM, prepare 3.5× compound dilution in a Compound Buffer (HBSS/20mM HEPES/0.005% BSA)—final concentration 10 uM.
Preparation of Cinnamaldehyde (agonist addition): • FW=132.16 • Specific gravity=1.046 gm/cc • 1.32 gm/1.046 gm/cc=1.26 ml of stock • Add 1.74 ml DMSO=3.3 M stock • Working solution 4.5× (final 100 uM in Compound Buffer: HBSS/20 mM HEPES/0.005% BSA)
Compounds dilutions were prepared from 5 or 10 mM stock (100% DMSO):
Compounds were tested at either 20 μM three folds dilution 11 steps out or 30 μM two folds dilution 11 steps out.
3 μl of diluted compound were transferred into Weidmann 384—well plate in duplicates side-by-side.
Compound plates were resuspended with 100 ul of HBSS/20 mM HEPES/0.005% BSA buffer (Compound Buffer): • column 1A-H: buffer/DMSO (bk) • column 2A-H: AP-18(control antagonist for CHOK1 TRPA1 cells) • column 1I-P: ATP (control for CHOK1 teton cells) • column 2 I-P: 2APB (control antagonist for CHOK1/TRPM8 cells).
Growth media was removed from the cell plates (20 ul) and 20 ul of the Replacement Buffer was added followed by addition of 25 ul of diluted dye. All three steps were performed using a Plate Washer BioTek 407. The plates were then incubated for 30′ at RT.
After incubation, both the cell and compound plates were brought to the FLIPR and 20 ul of the diluted compounds/antagonist/bk were transferred to the cell plates by the FLIPR. Plates were then incubated for 30′ at room temperature. After 30′ incubation, plates were returned to the FLIPR and 20 ul of 4.5× Cinnamaldehyde was added to the cell plates. During the compound addition as well as agonist addition, fluorescence readings were taken simultaneously from all 384 wells of the cell plate every 1.5 seconds. Five readings were taken to establish a stable baseline, then 20 μl of sample was rapidly (30 ul/sec) and simultaneously added to each well of the cell plate. The fluorescence was continuously monitored before, during and after sample/agonist addition for a total elapsed time of 100 seconds (compound addition) and 120 seconds (agonist addition). Responses (increase in peak fluorescence) in each well following agonist addition was determined. The initial fluorescence reading from each well, prior to ligand stimulation, was used a zero baseline value for the data from that well.

T1 sequence (O75762 whole entry): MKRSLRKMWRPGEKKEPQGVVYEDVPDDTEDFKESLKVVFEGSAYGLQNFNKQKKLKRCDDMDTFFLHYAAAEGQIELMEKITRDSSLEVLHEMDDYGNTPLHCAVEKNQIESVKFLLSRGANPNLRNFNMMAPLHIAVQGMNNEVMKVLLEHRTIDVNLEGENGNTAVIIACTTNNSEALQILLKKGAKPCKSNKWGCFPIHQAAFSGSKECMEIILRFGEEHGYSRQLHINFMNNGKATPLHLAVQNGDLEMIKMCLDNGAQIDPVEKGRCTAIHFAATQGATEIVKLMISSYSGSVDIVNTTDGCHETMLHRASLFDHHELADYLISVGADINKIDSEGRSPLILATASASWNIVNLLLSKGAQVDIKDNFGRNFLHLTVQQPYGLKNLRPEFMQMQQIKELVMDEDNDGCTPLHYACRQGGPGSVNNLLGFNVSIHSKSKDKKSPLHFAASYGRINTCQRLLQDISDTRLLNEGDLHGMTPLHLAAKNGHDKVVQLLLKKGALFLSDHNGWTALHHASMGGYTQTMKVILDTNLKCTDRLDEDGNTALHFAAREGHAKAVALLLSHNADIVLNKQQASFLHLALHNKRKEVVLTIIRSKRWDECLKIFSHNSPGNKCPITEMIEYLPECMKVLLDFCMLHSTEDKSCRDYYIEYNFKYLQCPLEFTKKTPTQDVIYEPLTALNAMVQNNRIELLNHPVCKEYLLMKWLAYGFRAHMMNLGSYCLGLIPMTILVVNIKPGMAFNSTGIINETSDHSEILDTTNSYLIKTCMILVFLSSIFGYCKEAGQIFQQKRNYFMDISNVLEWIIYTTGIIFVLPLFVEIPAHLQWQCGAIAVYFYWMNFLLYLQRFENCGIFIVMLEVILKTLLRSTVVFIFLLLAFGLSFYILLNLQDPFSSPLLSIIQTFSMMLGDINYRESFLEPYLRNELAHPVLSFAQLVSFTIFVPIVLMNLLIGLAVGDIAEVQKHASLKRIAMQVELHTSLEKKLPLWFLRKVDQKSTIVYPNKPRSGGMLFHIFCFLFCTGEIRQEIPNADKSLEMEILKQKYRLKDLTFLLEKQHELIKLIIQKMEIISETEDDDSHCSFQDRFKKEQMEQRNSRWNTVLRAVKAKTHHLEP

IC50 | SMILES
2.9 µM | COc1nccc(I)c1-c1cc2ccc(NC(=O)c3cccc(Cl)c3)cc2[nH]1 [Example 11, 3-Chloro-N-[2-(4-iodo-2-methoxy-pyridin-3-yl)-1H-indol-6-yl]-benzamide]
4.2 µM | COc1nccc(I)c1-c1cc2ccc(NC(=O)C(F)F)cc2[nH]1 [Example 3, 2,2-Difluoro-N-[2-(4-iodo-2-methoxy-pyridin-3-yl)-1H-indol-6-yl]-acetamide]
4 µM | COc1nccc(I)c1-c1cc2ccc(NC(=O)OC(C)(C)C)cc2[nH]1 [Example 1, [2-(4-Iodo-2-methoxy-pyridin-3-yl)-1H-indol-6-yl]-carbamic acid tert-butyl ester]
3.5 µM | COc1nccc(Cl)c1-c1cc2ccc(NC(=O)[C@@H]3CCCCN3S(=O)(=O)c3ccc(F)cc3)cc2[nH]1 [Example 13, (S)-1-(4-Fluoro-benzenesulfonyl)-piperidine-2-carboxylic acid[2-(4-chloro-2-methoxy-pyridin-3-yl)-1H-indol-6-yl]amide]
5.5 µM | CNc1ccc2cc(-c3c(I)ccnc3OC)[nH]c2c1 [Example 5, [2-(4-Iodo-2-methoxy-pyridin-3-yl)-1H-indol-6-yl]-methyl-amine]
5.6 µM | COc1nccc(Cl)c1-c1cc2ccc(NC(=O)c3cccc(Cl)c3)cc2[nH]1 [Example 12, 3-Chloro-N-[2-(4-chloro-2-methoxy-pyridin-3-yl)-1H-indol-6-yl]-benzamide]
4.3 µM | COc1cccc(Cl)c1-c1cc2ccc(N)cc2[nH]1 [Example 9, 2-(2-Chloro-6-methoxy-phenyl)-1H-indol-6-ylamine]
0.74 µM | COc1cc2cc(-c3c(I)ccnc3OC)[nH]c2cc1N [Example 8, 2-(4-Iodo-2-methoxy-pyridin-3-yl)-5-methoxy-1H-indol-6-ylamine]
3.3 µM | COc1nccc(I)c1-c1cc2ccc(N(C)C(=O)C(F)F)cc2[nH]1 [Example 6, 2,2-Difluoro-N-[2-(4-iodo-2-methoxy-pyridin-3-yl)-1H-indol-6-yl]-N-methyl-acetamide]
0.75 µM | COc1cccc(Cl)c1-c1cc2ccc(NC(=O)C(F)(F)F)cc2[nH]1 [Example 10, N-[2-(2-Chloro-6-methoxy-phenyl)-1H-indol-6-yl]-2,2,2-trifluoro-acetamide]
0.71 µM | COc1nccc(I)c1-c1cc2ccc(NC(=O)C(F)(F)F)cc2[nH]1 [Example 2, 2,2,2-Trifluoro-N-[2-(4-iodo-2-methoxy-pyridin-3-yl)-1H-indol-6-yl]-acetamide]
0.46 µM | COc1nccc(Cl)c1-c1cc2ccc(NC(=O)C(F)(F)F)cc2[nH]1 [Example 4, N-[2-(4-Chloro-2-methoxy-pyridin-3-yl)-1H-indol-6-yl]-2,2,2-trifluoro-acetamide]
3.6 µM | COc1nccc(I)c1-c1cc2ccc(N(C)C(C)=O)cc2[nH]1 [Example 7, N-[2-(4-Iodo-2-methoxy-pyridin-3-yl)-1H-indol-6-yl]-N-methyl-acetamide]
